Legend:
P. falciparum D6 = experiment: Malaria SYBR Green Fluorescence Assay, D6 strain; assay type: cell-based, Plasmodium falciparum; details: for D6: SYBR Green Assay
P. falciparum W2 = experiment: Malaria SYBR Green Fluorescence Assay, W2 strain; assay type: cell-based, Plasmodium falciparum; details: for W2: SYBR Green Assay
P. falciparum C235 = experiment: Malaria SYBR Green Fluorescence Assay, C235 strain; assay type: cell-based, Plasmodium falciparum; details: for C235: SYBR Green Assay
[1] = biological target: hERG potassium ion channel (Homo sapiens, UniProt Q12809); experiment: hERG patch clamp assay (% inhibition at 10 μM); details: for hERG: % inhibition at 10 μM, patch clamp; for hERG (% inhibition): 10 μM
hERG potassium ion channel, sequence (Q12809 whole entry): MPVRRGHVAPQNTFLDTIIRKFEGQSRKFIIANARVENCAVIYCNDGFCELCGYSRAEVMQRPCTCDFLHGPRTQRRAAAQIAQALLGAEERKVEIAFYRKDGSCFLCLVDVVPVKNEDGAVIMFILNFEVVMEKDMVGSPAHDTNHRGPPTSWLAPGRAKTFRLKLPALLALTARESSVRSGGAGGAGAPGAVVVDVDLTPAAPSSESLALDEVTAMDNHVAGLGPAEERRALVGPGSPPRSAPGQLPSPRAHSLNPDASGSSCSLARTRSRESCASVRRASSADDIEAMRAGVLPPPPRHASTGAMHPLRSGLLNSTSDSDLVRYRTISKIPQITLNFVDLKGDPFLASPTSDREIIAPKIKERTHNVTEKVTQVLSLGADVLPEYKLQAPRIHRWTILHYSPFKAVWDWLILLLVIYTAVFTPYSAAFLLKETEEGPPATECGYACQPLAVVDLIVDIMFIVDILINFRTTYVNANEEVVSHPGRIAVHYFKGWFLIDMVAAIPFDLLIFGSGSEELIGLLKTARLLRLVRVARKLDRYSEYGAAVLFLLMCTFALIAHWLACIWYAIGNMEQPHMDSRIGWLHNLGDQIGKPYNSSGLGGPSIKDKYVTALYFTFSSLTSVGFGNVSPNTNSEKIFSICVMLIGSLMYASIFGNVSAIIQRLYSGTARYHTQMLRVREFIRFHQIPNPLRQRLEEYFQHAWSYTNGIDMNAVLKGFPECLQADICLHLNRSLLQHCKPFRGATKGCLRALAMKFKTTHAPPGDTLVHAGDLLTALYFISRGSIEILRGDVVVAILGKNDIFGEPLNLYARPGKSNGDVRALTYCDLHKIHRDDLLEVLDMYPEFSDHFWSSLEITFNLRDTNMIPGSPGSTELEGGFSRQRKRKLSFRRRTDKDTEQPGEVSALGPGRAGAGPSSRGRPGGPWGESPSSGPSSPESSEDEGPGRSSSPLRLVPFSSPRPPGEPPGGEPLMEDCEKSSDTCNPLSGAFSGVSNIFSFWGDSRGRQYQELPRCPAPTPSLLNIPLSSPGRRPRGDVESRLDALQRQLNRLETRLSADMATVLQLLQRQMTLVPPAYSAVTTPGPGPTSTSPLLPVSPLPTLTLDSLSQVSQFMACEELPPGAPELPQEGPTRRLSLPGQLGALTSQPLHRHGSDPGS

Compound | D6 (P. falciparum D6) | W2 (P. falciparum W2) | C235 (P. falciparum C235) | hERG [1] | D6 (SYBR Green Assay IC50) (P. falciparum D6) | W2 (SYBR Green Assay IC50) (P. falciparum W2) | C235 (SYBR Green Assay IC50) (P. falciparum C235) | hERG (% inhibition) [1]
Clc1ccc(-c2nc(NCCc3ccccn3)nc(C(Cl)(Cl)Cl)n2)cc1 [Cmpd 140] | 106 ng/mL | 32 ng/mL | 136 ng/mL | 11% |  |  |  | 
CC(C)(C)c1ccc(-c2nc(N3CCNCC3)nc(C(Cl)(Cl)Cl)n2)cc1 [Cmpd 161] | 88 ng/mL | 32 ng/mL | 98 ng/mL | 15% |  |  |  | 
ClC(Cl)(Cl)c1ccc(-c2nc(NCCc3ccccn3)nc(C(Cl)(Cl)Cl)n2)cc1 [Cmpd 163] | 50 ng/mL | 20 ng/mL | 61 ng/mL | 5% |  |  |  | 
COc1cccc(-c2nc(NCCN3CCCC3)nc(C(Cl)(Cl)Cl)n2)c1 [Cmpd 192] | 18 ng/mL | 13 ng/mL | 12 ng/mL | 100% |  |  |  | 
ClC(Cl)(Cl)c1nc(NCCN2CCCC2)nc(-c2ccc(-c3ccccc3)cc2)n1 [Cmpd 196] | 31 ng/mL | 25 ng/mL | 30 ng/mL | 53% |  |  |  | 
Clc1cc(Cl)cc(-c2nc(NCCN3CCCC3)nc(C(Cl)(Cl)Cl)n2)c1 [Cmpd 202] | 7 ng/mL | 10 ng/mL | 7 ng/mL | 51% |  |  |  | 
CN1CCCN(c2nc(-c3cc(Cl)cc(Cl)c3)nc(C(Cl)(Cl)Cl)n2)CC1 [Cmpd 205] | 23 ng/mL | 7 ng/mL | 26 ng/mL | 20% |  |  |  | 
CN1CCC(Nc2nc(-c3cccc(C(F)(F)F)c3)nc(C(Cl)(Cl)Cl)n2)CC1 [Cmpd 212] | 45 ng/mL | 16 ng/mL | 25 ng/mL | 80% |  |  |  | 
COc1ccccc1-c1nc(NCC(C)(C)N)nc(C(Cl)(Cl)Cl)n1 [Cmpd 217] | 43 ng/mL | 20 ng/mL | 20 ng/mL | 62% |  |  |  | 
CCN(CC)CCNc1nc(-c2ccc3ccccc3c2)nc(C(Cl)(Cl)Cl)n1 [Cmpd 220] | 40 ng/mL | 8 ng/mL | 12 ng/mL | 66% |  |  |  | 
CN1CCC(Nc2nc(-c3ccccc3)nc(C(Cl)(Cl)Cl)n2)CC1 [Cmpd 237] | 47 ng/mL | 32 ng/mL | 31 ng/mL | 107% |  |  |  | 
CN1CCN(c2nc(-c3ccc(-c4ccccc4)cc3)nc(C(Cl)(Cl)Cl)n2)CC1 [Cmpd 298] | 62 ng/mL | 33 ng/mL | 87 ng/mL | 10% |  |  |  | 
CCN1CCC(CNc2nc(-c3ccc(-c4ccccc4)cc3)nc(C(Cl)(Cl)Cl)n2)CC1 [Cmpd 306] | 54 ng/mL | 30 ng/mL | 87 ng/mL | 38% |  |  |  | 
NC1(CNc2nc(-c3cccc(C(F)(F)F)c3)nc(C(Cl)(Cl)Cl)n2)CCOCC1 [Cmpd 315] | 3 ng/mL | 1 ng/mL | 8 ng/mL | 36% |  |  |  | 
CC1(C)CC(Nc2nc(-c3ccc(C(C)(C)C)cc3)nc(C(Cl)(Cl)Cl)n2)CC(C)(C)N1 [Cmpd 321] | 6 ng/mL | 3 ng/mL | 11 ng/mL | 11% |  |  |  | 
COc1ncccc1Nc1nc(NC2CC(C)(C)NC(C)(C)C2)nc(C(Cl)(Cl)Cl)n1 [Cmpd 348] | 11 ng/mL | 9 ng/mL | 18 ng/mL | 96% |  |  |  | 
CCC(N)(CC)CNc1nc(-c2ccc(Cl)cc2)nc(C(Cl)(Cl)Cl)n1 [Cmpd 356] |  |  |  |  | 3 ng/mL | 3 ng/mL | 7 ng/mL | 44%
CCC(N)(CC)CNc1nc(-c2ccc(-c3ccccc3)cc2)nc(C(Cl)(Cl)Cl)n1 [Cmpd 364] |  |  |  |  | 3 ng/mL | 4 ng/mL | 6 ng/mL | 25%
CCN(CC)CCNc1nc(Nc2ccc(OC(F)(F)F)cc2)nc(C(Cl)(Cl)Cl)n1 [Cmpd 374] |  |  |  |  | 2 ng/mL | 5 ng/mL | 5 ng/mL | 109%
CCC(N)(CC)CNc1nc(-c2ccc3ccccc3c2)nc(C(Cl)(Cl)Cl)n1 [Cmpd 377] |  |  |  |  | 2 ng/mL | 6 ng/mL | 8 ng/mL | 25%
Fc1ccc(-c2nc(NCCCN3CCCC3)nc(C(Cl)(Cl)Cl)n2)cc1 [Cmpd 381] |  |  |  |  | 5 ng/mL | 9 ng/mL | 14 ng/mL | 106%
NC1CCN(CC1)C1═NC(═NC(═N1)C1═CC═C(C═C1)C1═CC═CC═C1)C(Cl)(Cl)Cl [Compound 634] |  |  |  |  | 145 ng/mL | 62 ng/mL | 88 ng/mL | 
NC1CCN(CC1)C1═NC(═NC(═N1)C(Cl)(Cl)Cl)C1═CC(Cl)═CC(Cl)═C1 [Compound 631] |  |  |  |  | 291 ng/mL | 153 ng/mL | 219 ng/mL | 
NC1CCN(CC1)C1═NC(═NC(═N1)C(Cl)(Cl)Cl)C1═CC═C(Cl)C(Cl)═C1 [Compound 622] |  |  |  |  | 74 ng/mL | 36 ng/mL | 59 ng/mL | 

Reference: patent publication US9334246B2, “Substituted triazines for malaria treatment and chemoprophylaxis” (The United States of America, as represented by the …, priority 2013, dated 2016)
